# Experimental data published in patent publication US8598179B2, “Pyrazole-carboxamide derivatives as P2Y12 antagonists” (Sanofi, priority 2007, dated 2013).
# Test system: human platelet rich plasma (ADP-induced platelet aggregation)
# Assay: Inhibition of human platelet aggregation, 96-well assay
# Format: cell-based
# Settings: 20 min, aggregation induced by ADP, 96-well plates, AUC of absorbance over 20 minutes
# Experimental: Inhibition of Human Platelet Aggregation
# Alternatively to a binding assay which measures a compound's ability to bind to the P2Y12 receptor, the effect on cellular function was also determined. This ability of the compound was evaluated in two platelet aggregation assays: in 96-well plates and with the “Born”-method using single cuvettes.
# Whole blood was collected from healthy volunteers using 20 ml syringes containing 2 ml of ACD-A Aqua-Citrat-Dextrose-A, Fresenius). The anticoagulated whole blood was transferred into 15 ml polypropylene conical tubes (10 ml per tube). The tubes were centrifuged for 15 minutes at 150×g at RT without using the centrifuge brake. This procedure leads to a pellet of cellular components and a supernatant of platelet rich plasma (PRP). The PRP layer was collected from each tube and pooled for each donor. To avoid carry over of cellular components following centrifugation, approximately 5 ml of PRP was left in the tube. The platelet concentration was determined using a Coulter Counter.
# The 15 ml tubes containing the pellet of cellular components were centrifuged again for 10 minutes at 1940×g. This pelleted out most particulate blood constituents remaining, leaving a layer of Platelet Poor Plasma (PPP). The PPP was collected for each donor. The PRP layer, previously set aside, was diluted with PPP to a final concentration of approximately 3×E8 platelets/ml with the PPP.
# The human platelet aggregation assay is performed in 96-well plates using a microtiter plate reader (SpectraMax Plus 384 with SoftMax Pro software from Molecular Devices). In the plate 15 μl of test compound at 10× final concentration in NaCl is mixed with 120 μl fresh PRP and incubated for 5 minutes. Following that incubation period, 15 μl of 40 μM ADP is added to the reaction mix. This addition of ADP is sufficient to induce aggregation in the absence of an inhibitor. The plates are then transferred to the microplate reader and aggregation is measured over 20 minutes. The instrument settings include: Absorbance at 650 nm, run time 20 minutes with readings in 1-minute intervals and 50 seconds shaking between readings all performed at 37° C. Results of the assay are expressed as % inhibition, and are calculated using area under curve (AUC) of the absorbance over 20 minutes.
# The IC50 data of the above described platelet aggregation 96-well assay using human platelet rich plasma for exemplary compounds of the present invention are shown in table 2.
row,SMILES,IC50
1,"CCOC(=O)N1CCN(C(=O)[C@H](CCC(=O)O)NC(=O)c2cc(OCC(=O)N[C@H](C)C(=O)O)n(-c3ccccc3)n2)CC1 [Example 139, 4-[(S)-4-Carboxy-2-({5-[((R)-1-carboxy-ethylcarbamoyl)-methoxy]-1-phenyl-1H-pyrazole-3-carbonyl}-amino)-butyryl]-piperazine-1-carboxylic acid ethyl ester]",1850 nM
2,"CCOC(=O)N1CCN(C(=O)[C@H](CCC(=O)O)NC(=O)c2cc(OCC(=O)N[C@@H](C)C(=O)O)n(-c3ccccc3)n2)CC1 [Example 138, 4-[(S)-4-Carboxy-2-({5-[((S)-1-carboxy-ethylcarbamoyl)-methoxy]-1-phenyl-1H-pyrazole-3-carbonyl}-amino)-butyryl]-piperazine-1-carboxylic acid ethyl ester]",1480 nM
3,"CCOC(=O)N1CCN(C(=O)[C@H](CCC(=O)O)NC(=O)c2cc(OCC(=O)C3CC3)n(-c3ccccc3)n2)CC1 [Example 96, 4-((S)-4-Carboxy-2-{[5-(2-cyclopropyl-2-oxo-ethoxy)-1-phenyl-1H-pyrazole-3-carbonyl]-amino}-butyryl)-piperazine-1-carboxylic acid ethyl ester]",2600 nM
4,"CCOC(=O)N1CCN(C(=O)[C@H](CCC(=O)O)NC(=O)c2cc(OCC(=O)NC3(C(=O)NC4CCC4)CCC3)n(-c3ccccc3)n2)CC1 [Example 167, 4-{(S)-4-Carboxy-2-[(5-{[1-(cyclobutyl-carbamoyl)-cyclobutylcarbamoyl]-methoxy}-1-phenyl-1H-pyrazole-3-carbonyl)-amino]-butyryl}-piperazine-1-carboxylic acid ethyl ester]",2190 nM

# Biological target: T1, human P2Y12 receptor (Homo sapiens, UniProt Q9H244)
# T1 construct: expressed in transfected cells; host or cells: CHO cells (membrane preparation)
# Assay: Human P2Y12 recombinant cell membrane binding assay
# Settings: competition against 33P 2MeS-ADP; CHO cell membranes with recombinant human P2Y12 receptor
# Experimental: The ability of the compounds of the formula I to inhibit the P2Y12 receptor can be assessed by determining the concentration of the compound of the formula I that binds to the human P2Y12 Recombinant Cell Membrane Binding Assay with 33P 2MeS-ADP.
# Human P2Y12 Recombinant Cell Membrane Binding Assay
# The ability of a test compound to bind to the P2Y12 receptor was evaluated in a recombinant cell membrane binding assay. In this competitive binding assay, the test compound competed against a radiolabeled agonist for binding to the P2Y12 receptor, expressed on the cell membrane. Inhibition of binding of the labeled material was measured and correlated to the amount and potency of the test compound. This binding assay is a modification of the procedure described by Takasaki, J. et. al, Mol. Pharmacol., 2001, Vol. 60, pg. 432.
# As source of P2Y12, a membrane preparation was prepared from Chinese Hamster Ovary (CHO) cells with recombinant expression of the human P2Y12 receptor according to standard procedures.
# To a 96-well microtiterplate the following were added: a) 24 μl of assay buffer (10 mM HEPES, 138 mM NaCl, […] KCl, 12 mM NaHCO3, 1 mM EDTA-Na, 0.1% BSA, pH 7.4) b) 1 μL compound in DMSO c) 50 μL P2Y12 CHO membrane (20 μg/ml) and after 15 min at RT d) 25 μL of 1.61 nM 33P 2MeS-ADP (Perkin Elmer NEN custom synthesis, specific activity ˜2100Ci/mmol) made in assay buffer.
# After 20 min incubation at RT samples were transferred to 96-well microtiter filterplates (Millipore HTS GF/B), pre-wetted for 20 min with 300 μL of stop buffer (10 mM HEPES, 138 mM NaCl pH 7.4) and then filtered through completely with a Millipore plate vacuum. Next, wells were washed four times with 400 μl/well of stop buffer on a plate vacuum. The plate was disassembled and allowed to air dry overnight with the filter side up over night. The filter plates were snapped into adapter plates and 0.1 mL of Microscint 20 Scintillation Fluid (Perkin Elmer #6013621) was added to each well. The top of the filterplate was sealed with plastic plate covers. The sealed filterplate were incubated 2 hours at RT. A Microbeta Scintillation Counter was used to measure counts. The binding of compound is expressed as a % inhibition of specific binding, defined by subtraction of the background with 1 mM ADP.
# Compounds were diluted as 10 mM DMSO stocks and tested in a four-point, five-fold dilution series run in triplicate beginning at 10 μM, final concentration. Data were analyzed using a four-parameter curve fit with a fixed minimum and maximum experimentally defined as the average positive and negative controls on each plate. The IC50 data of the above described human P2Y12 recombinant cell membrane binding assay for exemplary compounds of the present invention are shown in table 1.
# T1 sequence (Q9H244 whole entry): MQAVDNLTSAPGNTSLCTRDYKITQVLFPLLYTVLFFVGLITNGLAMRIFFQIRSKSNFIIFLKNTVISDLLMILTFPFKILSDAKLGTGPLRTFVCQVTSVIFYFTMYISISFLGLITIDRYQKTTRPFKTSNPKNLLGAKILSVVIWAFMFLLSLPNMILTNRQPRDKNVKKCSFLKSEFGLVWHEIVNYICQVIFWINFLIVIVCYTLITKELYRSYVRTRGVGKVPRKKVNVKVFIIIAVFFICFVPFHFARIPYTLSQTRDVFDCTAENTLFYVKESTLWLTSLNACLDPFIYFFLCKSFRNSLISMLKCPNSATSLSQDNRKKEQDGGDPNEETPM
row,SMILES,IC50
1,"CCOC(=O)N1CCN(C(=O)[C@H](CNC(=O)C(=O)O)NC(=O)c2cc(OCC(=O)C(C)(C)C)n(-c3ccccc3)n2)CC1 [Example 134, 4-[(S)-2-{[5-(3,3-Dimethyl-2-oxo-butoxy)-1-phenyl-1H-pyrazole-3-carbonyl]-amino}-3-(oxalyl-amino)-propionyl]-piperazine-1-carboxylic acid ethyl ester]",501 nM
2,"CCOC(=O)N1CCN(C(=O)[C@H](CCC(=O)O)NC(=O)c2cc(OC3(C(=O)O)CCC3)n(-c3ccccc3)n2)CC1 [Example 7, 4-((S)-4-Carboxy-2-{[5-(1-carboxy-cyclobutoxy)-1-phenyl-1H-pyrazole-3-carbonyl]-amino}-butyryl)-piperazine-1-carboxylic acid ethyl ester]",601 nM
3,"CCOC(=O)N1CCN(C(=O)[C@H](CC(C(=O)O)C(=O)O)NC(=O)c2cc(OC3(C(=O)OCC)CCC3)n(-c3ccccc3)n2)CC1 [Example 61, 2-[(S)-2-{[5-(1-Ethoxycarbonyl-cyclobutoxy)-1-phenyl-1H-pyrazole-3-carbonyl]-amino}-3-(4-ethoxycarbonyl-piperazin-1-yl)-3-oxo-propyl]-malonic acid]",379 nM
4,"COc1cc(OC)cc(N2CCN(C(=O)[C@H](CCC(=O)O)NC(=O)c3cc(OCC(=O)C(C)(C)C)n(-c4ccccc4)n3)CC2)c1 [Example 105, (S)-5-[4-(3,5-Dimethoxy-phenyl)-piperazin-1-yl]-4-{[5-(3,3-dimethyl-2-oxo-butoxy)-1-phenyl-1H-pyrazole-3-carbonyl]-amino}-5-oxo-pentanoic acid]",1400 nM
5,"CCOC(=O)N1CCN(C(=O)[C@H](CNc2c(O)c(=O)c2=O)NC(=O)c2cc(OCC(=O)C(C)(C)C)n(-c3ccccc3)n2)CC1 [Example 136, 4-[(S)-2-{[5-(3,3-Dimethyl-2-oxo-butoxy)-1-phenyl-1H-pyrazole-3-carbonyl]-amino}-3-(2-hydroxy-3,4-dioxo-cyclobut-1-enylamino)-propionyl]-piperazine-1-carboxylic acid ethyl ester]",3500 nM
6,"CCOC(=O)N1CCN(C(=O)[C@H](CC(=O)NS(C)(=O)=O)NC(=O)c2cc(OCC(=O)C(C)(C)C)n(-c3ccccc3)n2)CC1 [Example 164, 4-((S)-2-{[5-(3,3-Dimethyl-2-oxo-butoxy)-1-phenyl-1H-pyrazole-3-carbonyl]-amino}-4-methanesulfonylamino-4-oxo-butyryl)-piperazine-1-carboxylic acid ethyl ester]",1600 nM
7,"CC(C)(C)C(=O)COc1cc(C(=O)N[C@@H](CCC(=O)O)C(=O)N2CCC(C(=O)c3cccc(Cl)c3)CC2)nn1-c1ccccc1 [Example 127, (S)-5-[4-(3-Chloro-benzoyl)-piperidin-1-yl]-4-{[5-(3,3-dimethyl-2-oxo-butoxy)-1-phenyl-1H-pyrazole-3-carbonyl]-amino}-5-oxo-pentanoic acid]",2800 nM
8,"Cc1cc(COc2cc(C(=O)N[C@@H](CCC(=O)O)C(=O)N3CCN(c4cccc(C(F)(F)F)c4)CC3)nn2-c2ccccc2)no1 [Example 120, (S)-4-{[5-(5-Methyl-isoxazol-3-ylmethoxy)-1-phenyl-1H-pyrazole-3-carbonyl]-amino}-5-oxo-5-[4-(3-trifluoromethyl-phenyl)-piperazin-1-yl]-pentanoic acid]",3500 nM
9,"CCCCOC(=O)N1CCN(C(=O)[C@H](CCC(=O)O)NC(=O)c2cc(OCC(=O)C(C)(C)C)n(-c3ccccc3)n2)CC1 [Example 147, 4-((S)-4-Carboxy-2-{[5-(3,3-dimethyl-2-oxo-butoxy)-1-phenyl-1H-pyrazole-3-carbonyl]-amino}-butyryl)-piperazine-1-carboxylic acid butyl ester]",95 nM
10,"CCOC(=O)N1CCN(C(=O)[C@H](CC(=O)O)NC(=O)c2cc(OCC(=O)C(C)(C)C)n(-c3ccccc3)n2)CC1 [Example 163, 4-((S)-3-Carboxy-2-{[5-(3,3-dimethyl-2-oxo-butoxy)-1-phenyl-1H-pyrazole-3-carbonyl]-amino}-propionyl)-piperazine-1-carboxylic acid ethyl ester]",200 nM
11,"CC(C)(C)C(=O)COc1cc(C(=O)N[C@@H](CCC(=O)O)C(=O)N2CCN(C(=O)OC3CCC3)CC2)nn1-c1ccccc1 [Example 158, 4-((S)-4-Carboxy-2-{[5-(3,3-dimethyl-2-oxo-butoxy)-1-phenyl-1H-pyrazole-3-carbonyl]-amino}-butyryl)-piperazine-1-carboxylic acid cyclobutyl ester]",266 nM
